For test [1], the target named is T1, E. coli threonine deaminase (ilvA) variant L481Y, SEQ ID NO: 5 (Escherichia coli, UniProt P04968, A120R/A140R/G195C/G334V/L481Y/V121L).
T1 construct: made in house; host or cells: E. coli (pSE380, crude extract)
T1 sequence (P04968 1-514 A120R/V121L/A140R/G195C/G334V/L481Y): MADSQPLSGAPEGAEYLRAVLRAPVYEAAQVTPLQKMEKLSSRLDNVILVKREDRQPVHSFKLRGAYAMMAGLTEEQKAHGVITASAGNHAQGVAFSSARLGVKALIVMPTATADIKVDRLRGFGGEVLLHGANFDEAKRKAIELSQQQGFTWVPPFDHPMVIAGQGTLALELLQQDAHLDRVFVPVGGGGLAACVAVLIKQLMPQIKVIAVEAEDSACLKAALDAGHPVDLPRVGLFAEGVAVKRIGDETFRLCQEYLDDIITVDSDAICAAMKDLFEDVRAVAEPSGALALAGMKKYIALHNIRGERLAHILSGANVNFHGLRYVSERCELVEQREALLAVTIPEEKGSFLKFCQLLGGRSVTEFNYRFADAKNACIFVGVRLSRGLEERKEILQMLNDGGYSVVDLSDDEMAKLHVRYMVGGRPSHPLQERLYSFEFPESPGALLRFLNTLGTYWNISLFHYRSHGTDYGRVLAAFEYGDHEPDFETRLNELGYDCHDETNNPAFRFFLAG
The test is described as follows: Threonine deaminase steady state kinetics, L481Y. It is filed as biochemical. On the procedure: (§1) Before conducting further transformation experiments using the isolated ilvA alleles in transgenic plants, each allele was over-expressed in E. coli to determine its kinetic parameters. Kinetics data on threonine deaminases containing various mutations, and a comparison to data available for threonine deaminases from Arabidopsis, are provided in Table 4. The E. coli ilvA481 variants were subcloned into pSE380 (Invitrogen, Carlsbad, Calif.) and expression was induced with 0.2 mM IPTG at 37° C. for 3 hours. Expression of the E. coli alleles was high and fairly consistent as visualized by SDS-PAGE.
(§2) The effects of amino acid substitutions at Leu481 in ilvA were assessed by steady state kinetic analysis in the presence and absence of L-isoleucine. Threonine deaminase polypeptides for use in in vitro kinetics studies were extracted from E. coli cells in assay buffer containing 50 mM potassium phosphate (pH7.5), 1 mM dithiothreitol (DTT), and 0.5 mM ethylenediamine-tetraacetate. A continuous assay method was employed to monitor the formation of α-ketobutyrate directly at 230 nm (ε230 (pH7.5)=540 M^−1cm^−1 whereas threonine absorption was negligible (˜1%)). The assay was initiated by adding 20 μl of crude extract diluted 1:20 v/v to the assay vessel containing L-threonine (between 2.5 mM and 50 mM) in a final volume of 1 mL. For L-isoleucine inhibition, L-isoleucine was added between 0 mM and 20 mM. The kinetic parameters were determined by fitting the data points to the equations using GraFit 4.0 software (Erithacus Software, Surrey, UK). For comparison, the kcat values of L481 alleles were normalized to the kcat value for the wild type IlvA enzyme. Enzymes represented in FIG. 7 are: wild type E. coli threonine deaminase (circles), L481Y TD enzyme (diamonds), L481F TD enzyme (triangles), and the L481T TD enzyme (squares). Table 4 also summarizes the kinetic parameters of the variant threonine deaminase enzymes produced by the various E. coli ilvA alleles.

In test [2] the target is T2, E. coli threonine deaminase (ilvA) variant L481Q, SEQ ID NO: 9 (Escherichia coli, UniProt P04968, A120R/A140R/G195C/G334V/L481Q/V121L).
T2 construct: made in house; host or cells: E. coli (pSE380, crude extract)
T2 sequence (P04968 1-514 A120R/V121L/A140R/G195C/G334V/L481Q): T1 sequence (P04968 1-514 A120R/V121L/A140R/G195C/G334V/L481Y) with Y481Q
The test is described as follows: Threonine deaminase steady state kinetics, L481Q. The class given is biochemical. On the procedure: as §1, §2

Test [3] concerns the target Arabidopsis threonine deaminase, wild type. The following applies: wild type Arabidopsis TD, comparison data, cited from earlier work.
The target in test [4] is Arabidopsis threonine deaminase, mutant OMR1 (polynucleotide SEQ ID NO: 22). The following applies: mutant Arabidopsis (OMR1) TD, comparison data, cited from earlier work.

Changes are numbered by the printed parent chain.

Regarding `CC[C@H](C)[C@H](N)C(=O)O` [L-isoleucine], the concentration for half-maximal inhibition (IC50) (in general, the concentration that inhibits the measured activity by half) is 1600 µM in test [1], 188 µM in test [2], 10 µM in test [3] and 500 µM in test [4].
For the molecule `C[C@@H](O)[C@H](N)C(=O)O` [L-threonine], the “Hill coefficient (n), substrate binding” value is listed as 1.1 in test [1] (L481Y, pMON25868, degree of cooperativity) and 1.6 in test [2] (L481Q, pMON25865, positive cooperativity). Besides, the Km (usually the substrate concentration at which the rate is half of its maximum) in test [1] (read-out: Km^Thr, L481Y, pMON25868, pH 7.5, L-threonine 2.5-50 mM) was 2 mM; in test [2] (read-out: Km^Thr, L481Q, pMON25865, pH 7.5, L-threonine 2.5-50 mM) it was 8.8 mM; in test [3] (read-out: Km^Thr), 2.8 mM; in test [4] (read-out: Km^Thr), 3.6 mM.

(Values after patent US20050289668A1, “Plants with increased levels of one or more amino acids” (priority 2003, published 2005).)
